According to patent US20110294732A1, “ERYTHROPOLETIN COMPLEMENTATION OR REPLACEMENT” (Universite De Strasbourg, priority 2007, published 2011):
Values joined by “and” are separate entries in the source; they are usually repeats but may differ in a detail not shown here. Equal values may be shown once. “Also recorded” adds a separate entry of the source.

Experiments:
[1] = target: murine hemoglobin (Mus musculus, UniProt P02088); assay: In vitro P50 shift of hemoglobin mixed with ITPP (HEMOX analyzer); type: biochemical
Chain of murine hemoglobin (P02088 2-147 limits assumed): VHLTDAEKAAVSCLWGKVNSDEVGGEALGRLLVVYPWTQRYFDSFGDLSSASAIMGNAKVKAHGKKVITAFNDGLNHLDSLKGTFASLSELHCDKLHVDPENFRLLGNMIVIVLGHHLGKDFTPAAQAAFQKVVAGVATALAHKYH
Chain of murine hemoglobin (P01942 2-142 partner limits assumed): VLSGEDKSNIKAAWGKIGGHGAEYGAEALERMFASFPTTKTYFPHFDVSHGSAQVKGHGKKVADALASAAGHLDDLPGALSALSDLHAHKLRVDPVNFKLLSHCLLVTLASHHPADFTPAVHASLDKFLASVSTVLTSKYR
Procedure: Myo-ITPP was tested for its ability to induce a decrease of the O2-affinity of hemoglobin measured as a shift of the P50 value (P50 at 50% saturation of hemoglobin). The observed shifts to higher PO2 were up to 250% in murine hemoglobin and up to 40% in murine whole blood. This finding was particularly striking because the shifts occurred concomitantly in vivo with a decrease in the number of RBCs and hematocrit; such hemodilution is recognized as a positive indicator in many circumstances because it is diagnostic for downregulation of RBC production where the body's oxygen needs are being met efficiently. Additional support came from enhancement of the effort capacity of test animals by up to 100% following ITPP administration, which confirmed that oxygen was being delivered efficiently to the working muscle, and only to that muscle.
(§1) For the in vitro experiments, ITPP was dissolved in deionized water, pH was adjusted to pH 7 and, for incubation with whole blood, the osmolarity of the ITPP solutions was adjusted with glucose to 270-297 mOsM. Mixtures of hemoglobin and ITPP were measured with a HEMOX analyzer (PD Marketing, London) immediately after mixing. Red blood cells were incubated with ITPP for 1 hour at 37° C. Following incubation, the cells were washed 3 times with Bis-Tris-buffer (pH=7.0) and then used for P50 measurement.

[2] = system: whole blood; assay: In vitro P50 of whole blood after incubation with effector, mouse; type: cell-based
Procedure: as §1
(§2) ITPP was tested along with a cholesteroyl derivative (here designated as kf96) (both at 60 mM) as effectors for P50 shifts in whole blood of three species: human, mouse and pig. As usual, pHs for the compound-solutions were adjusted to ca. 7.0, osmolarities for both solutions were determined (325-373 mOsM) prior to treatment with the effectors, and whole blood volumes at 1:1 ratios were incubated.

[3] = system: whole blood; assay: In vitro P50 of whole blood after incubation with effector, human; type: cell-based; settings: 60 mM
Procedure: as §1, §2

[4] = system: whole blood; assay: In vitro P50 of whole blood after incubation with effector, pig; type: cell-based; settings: 60 mM
Procedure: as §1, §2

[5] = system: RBCs; assay: Lysis of RBCs after in vitro incubation with effector; type: cell-based, human, mouse and pig
[6] = Tolerability of oral treatment in mice; type: in vivo, C57BL/6 mice; settings: drinking over 4 days
Procedure: Twelve C57BL/6 mice drank ITPP over 4 days (about 25 ml/24 hrs). Seven Control mice drank either pure water (three mice), or a solution of IHP (inositol hexaphosphate without the internal pyrophosphate rings) at the same concentration and pH as ITPP (4 mice). […] Blood was collected from the tail vein of the 12 C57BL/6 mice on day 0 (before treatment started), 1, 2, 4, 6, 7, 8, 10, 11 and 12, in order to measure P50 values. […] Oral application of ITPP caused significant right shifts of P50 (up to 31%) in mice.

[7] = system: porcine RBCs; assay: P50 shift of porcine RBCs after intravenous injection; type: in vivo, piglet; settings: intravenous 1 g ITPP/kg body weight
Procedure: (§3) An in vivo experiment was performed on one 8 week-old normal piglet (body weight: 17 kg). The piglet was anesthesized with 5% Isoflurane, 0.7 L/min N2O and 2.0 L/min O2 for 20-30 minutes, when ITPP was injected, or blood was taken from the ear vein, respectively. The compound injected intravenous at a concentration of 27 g ITPP/100 ml water (volume injected: 63 ml, pH 6.5, containing 17 g ITPP=1 g/l kg body weight) was not harmful to the animal, when injected into the piglet's ear vein over at least 10 minutes.
(§4) Intravenous injection of 1 g ITPP/kg body weight caused a significant right shift of the P50-value (up to 20%) in porcine RBCs. An almost saturated ITPP solution, pH 6.7, was injected intravenously into two piglets (both of ca. 18 kg body weight) (27 g ITPP/100 ml=1.5 g/kg body weight) over 20 minutes.

[8] = Blood counts of piglets after intravenous injection; type: in vivo; settings: iv 1 g/kg
Source text: Blood from 2 piglets that received ITPP (1 g/kg body weight) was collected before injection, 2 hrs after, and daily over a period of 14 days after injection, in order to assess any differences in the blood counts of treated and non-treated piglets.
(§5) Blood was taken from the heart of the dead animals for determination of blood counts as well as the amount of sodium, potassium and calcium in the sera. All numbers of blood cells (hematocrit, white blood cells etc.) were halved. The amount of potassium and calcium was normal, while sodium was doubled (before injection: 120-140 mmol/L; after injection: 245 mmol/L). Apparently, the large amount of sodium in that form of ITPP (6 Na^+/molecule) caused the death of the animals. It appears that up to 1 g ITPP per kg body weight can be injected intravenously, (if injected slowly) without harmful effects for the animals. […] A second piglet was also injected with ITPP at the 1 g/kg concentration, after 2 piglets had died after iv injection of 1.2 g ITPP (or even more) per kg body weight. […] Starting with day 3 after injection of the allosteric effector, the number of reticulocytes increased by about 3% for a period of 14 days.

[9] = Tolerability and toxicity of intravenous injection in piglets; type: in vivo
Procedure: as §3, §4, §5

[10] = Hematocrit after IP injection; type: in vivo; settings: 6 days after IP injection of 200 μl of a 60 mM solution; 40% on day 0
Procedure: It appears, based upon the preliminary data reported, that an inverse relationship exists between the number of RBCs and shift of their P50 value (see FIG. 1). The basal value of the RBC count is restored, once ΔP50 becomes 0%, 12 days after ingestion of ITPP. The hematocrit drops from 40% on day 0 (before ITPP administration) to 32%, 6 days after IP injection of 200 μl of a 60 mM ITPP solution.

[11] = Blood counts of mice after oral ingestion; type: in vivo; settings: single mouse, oral in water for 4 days; day 0 count 8.9-11.8

## O=P1(O)OC2C3OP(=O)(O)OP(=O)(O)OC3C3OP(=O)(O)OP(=O)(O)OC3C2OP(=O)(O)O1 (centres unmarked) [ITPP, inositol-tripyrophosphate]
[1]
  shift of the P50 value to higher PO2: up to 250%
[2]; mouse whole blood, 60 mM
  P50 increase, % (ITPP): 29%
[2]; mouse whole blood, 60 mM, control 36.7
  P50 mm Hg effector ITPP: 47.4 mm Hg
[2]; murine whole blood
  shift of the P50 value to higher PO2: up to 40%
[3]
  P50 increase, % (ITPP): 39%
[3]; control 22.1
  P50 mm Hg effector ITPP: 30.8 mm Hg
[4]; pig whole blood
  P50 increase, % (ITPP): 40%
[4]; pig whole blood, control 32.2
  P50 mm Hg effector ITPP: 45.2 mm Hg
[4]; summary over human, pig and mouse whole blood
  right shift in the Hb-O2 dissociation curve, strongest shift: up to 40%
[5]
  lysis of RBCs: never occurred; also recorded: no lysis of RBCs was observed
[6]
  tolerability of oral treatment: No C57BL/6 mouse seemed to suffer
[7]
  right shift of the P50-value: up to 20%
[8]
  number of other cells such as white blood cells: No major differences
[8]; 5-14 days after injection, day 14
  reticulocytes, increasing numbers: up to 3.0%
[8]; first 3 days (24 to 72 hrs) after injection, from 1.4% / 1.5%
  reticulocyte population after decrease: 0.5%
[8]; first days after injection
  hematocrit and number of RBCs: slight decrease; also recorded: decrease in hematocrit was observed
[8]; injected slowly
  pathological changes of the blood counts: did not show any pathological changes
[8]; starting with day 3, for a period of 14 days
  increase of the number of reticulocytes: about 3%
[9]; 1 g/kg body weight, injected slowly over at least 10 minutes
  harmfulness of intravenous injection: not harmful
[9]; after lethal iv injection
  amount of potassium and calcium in the sera: normal
[9]; after lethal iv injection, before injection 120-140
  sodium in the sera after injection: 245 mmol/L
[9]; heart blood after lethal iv injection
  numbers of blood cells (hematocrit, white blood cells etc.) in the dead animals: halved
[9]; if injected slowly
  amount that can be injected intravenously without harmful effects: up to 1 g ITPP per kg body weight
[9]; iv, almost saturated solution 27 g/100 ml, intended 1.5 g/kg over 20 minutes, received <1.3 g/kg
  mortality: Both piglets died; also recorded: killed the animals
[10]
  hematocrit: 32%
[11]
  RBC × 10^6/mm^3: 9.35 10^6/mm^3 and 8.60 10^6/mm^3 and 8.95 10^6/mm^3 (2×) and 8.88 10^6/mm^3 and 8.70 10^6/mm^3 and 8.73 10^6/mm^3 and 7.65 10^6/mm^3 and 7.80 10^6/mm^3
